Data from article PMC3409115, “Diverse Inhibitor Chemotypes Targeting Trypanosoma cruzi CYP51” (PLoS Neglected Tropical Diseases, 2012).
“Also recorded” adds a separate entry of the source.

Key:
T. cruzi CYP51 = molecular target: T1, T. cruzi CYP51 (Trypanosoma cruzi, UniProt Q7Z1V1); assay: Primary HTS in two-wavelength mode; assay type: binding; conditions: 2 µM CYP51, 528 measurements
T1 construct: had the first 21 residues upstream of K22 replaced with the fragment MAKKKKK; His6 (C); made in house

[1] = test system: sterol biosynthesis in T. cruzi amastigotes; assay: Lipid analysis of T. cruzi amastigotes (GC-MS of membrane sterols); assay type: cell-based, Trypanosoma cruzi; conditions: amastigotes in C2C12 myoblasts, 24 h drug treatment, concentrations 5x below cidal; posaconazole 100 nM
Method: To grow intracellular amastigotes for lipid analysis, C2C12 mouse skeletal myoblasts (4×10^6 cells) cultured in 150 cm^2 flasks as described above were infected with 80×10^6 trypomastigotes for 24 h. The cultures were treated with test compounds 72 h post-infection at concentrations 5× below cidal to avoid completely killing the parasites. Posaconazole at 100 nM was used as a positive control. […] Cells were harvested 96 h post-infection and after 24 h of drug treatment. Cell detachment was initiated by brief treatment with 10 ml of 0.25% trypsin in PBS, followed promptly by replacement with 10 ml of fresh media containing FBS. Harvested cells were washed 3× with 25 ml of PBS to remove FBS and released trypomastigotes. The suspension of infected cells was then transferred to a glass tube and centrifuged at 2000 rpm for 5 min. After washing with PBS, 2 ml of chloroform-methanol solution (2∶1 ratio) was added to re-suspend the cell pellet. Organic solvents were then evaporated under N2 flow, allowing the pellet to dry.
For total lipid extraction, the dry cell pellet was treated with 2 ml chloroform for 24 h. Polar molecules were removed by washing the organic phase 3× with 3 ml water. The organic phase containing the sterols was subsequently dried on an evaporator under N2 flow. The lipids were re-suspended in 2 ml of chloroform-methanol (9∶1 ratio), washed again 3× with 3 ml water, dried under N2 flow and re-suspended in acetonitrile. After an additional wash 3× with 3 ml water, the acetonitrile was dried under an N2 stream. Extracted dry sterols were re-dissolved in hexane and derivatized with N,N-bis(trimethylsilyl)-2,2,2-trifluoroacetamide (BSTFA) (Pierce) by incubating at 37°C for at least 2 hours. Sterols as their trimethylsilyl (TMS) derivatives were analyzed by gas chromatography and mass spectrometry (GC-MS). GC-MS analysis and lipid identification were performed as described previously.

[2] = test system: T. cruzi trypomastigote strain CAI/72 in C2C12 myoblasts; assay: Trypanocidal assay; assay type: cell-based, Trypanosoma cruzi; conditions: 14 days treatment, then one week compound-free
Method: Compounds cross-validated with low EC50 against T. cruzi infected cells were further evaluated to determine the “cidal” concentration at which host cells are effectively cured, using the protocol adapted from Engel et al 1998 [30]. To allow long term treatment and avoid culture overgrowth, C2C12 myoblasts were seeded at low density in 96 well plates (10^3 cells/well) and cultured with DMEM H-21 medium supplemented with low FBS concentration (1%), 25 mM HEPES, 2 mM L-glutamine, 100 U/ml penicillin and 100 µg/ml streptomycin. The cells were infected with T. cruzi trypomastigote strain CAI/72 (5 parasites/cell) for 24 h and treated with 0, 0.04, 0.12, 0.37, 1.10, 3.30 or 10 µM test compounds in 100 µl of medium for 14 days. During the course of treatment, medium supplemented with test compounds was replaced every 72 h. After 14 days, drug pressure was withdrawn and incubation continued in the compound-free medium for another week, during which cultures were monitored for reappearance of T. cruzi trypomastigotes in the supernatant.

[3] = test system: T. cruzi-infected skeletal myoblasts (intracellular amastigotes); assay: Hit cross-validation in T. cruzi-infected mammalian cells (image-based assay); assay type: cell-based, Trypanosoma cruzi; conditions: Trypanosoma cruzi, Myoblast, 72 h, T. cruzi-infected myoblasts, 72 h treatment; read-out: EC50 in image-based HTS cross-validation assay

T1 sequence (Q7Z1V1 15-481, looked up, natural form): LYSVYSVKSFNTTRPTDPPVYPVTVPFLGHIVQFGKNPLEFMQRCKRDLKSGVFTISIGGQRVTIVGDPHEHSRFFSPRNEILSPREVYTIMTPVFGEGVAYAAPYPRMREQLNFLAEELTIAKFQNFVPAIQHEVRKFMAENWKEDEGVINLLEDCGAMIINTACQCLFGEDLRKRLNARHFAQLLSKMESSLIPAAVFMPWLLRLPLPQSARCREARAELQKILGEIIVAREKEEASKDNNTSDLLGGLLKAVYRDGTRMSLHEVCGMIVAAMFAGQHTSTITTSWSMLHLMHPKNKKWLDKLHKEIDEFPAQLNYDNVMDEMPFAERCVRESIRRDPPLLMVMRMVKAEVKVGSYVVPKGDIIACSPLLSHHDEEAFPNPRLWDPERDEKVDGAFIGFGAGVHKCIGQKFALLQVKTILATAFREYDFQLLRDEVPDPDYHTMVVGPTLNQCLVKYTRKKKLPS

SMILES	ΔA = A425−A390 (T. cruzi CYP51)	Effect on membrane sterol composition by GC-MS [1]	Trypanocidal concentration [2]	EC50 [3]
CC1CCC(C(=O)NC(Cc2c[nH]c3ccccc23)C(=O)Nc2ccncc2)CC1 (stereo not drawn) [reference, α-[(4-methylcyclohexyl)carbonylamino]-N-4-pyridinyl-1H-indole-3-propanamide]	0.043±0.004	–	–	–
CC[C@@H]([C@H](C)O)n1ncn(-c2ccc(N3CCN(c4ccc(OC[C@@H]5CO[C@@](Cn6cncn6)(c6ccc(F)cc6F)C5)cc4)CC3)cc2)c1=O [posaconazole, reference compound]	–	lanosterol (f) and eburicol (h) dominated the GC-MS traces; also recorded: fecosterol (e) was completely inhibited	0.6 nM	1 nM
